Reference: patent US20070117743A1, “New antitumoral compounds” (priority 2003, published 2007)
Where a SMILES comes first, the peptide text is derived from it. Bridges are numbered along the chain shown (N, C = ends). [ ]: non-standard residue; d: D form. The star is where a group is joined. d(aIle) = CC[C@H](C)[C@@H](N)C(=O)O; d(aThr) = C[C@@H](O)[C@@H](N)C(=O)O; Hexanoyl(5-Me) = CC(C)CCCC(=O)*; Orn = NCCC[C@H](N)C(=O)O; Dhb = C/C=C(\N)C(=O)O

How the values were obtained:
Assay type in all cases: cell-based, human
A-549 = assay: SRB colorimetric assay of cell growth and viability, A-549; details: A-549, 48 hours exposure
SK-MEL-28 = assay: SRB colorimetric assay of cell growth and viability, SK-MEL-28; details: MEL-28, 48 hours exposure
HT-29 = assay: SRB colorimetric assay of cell growth and viability, HT-29; details: HT-29, 48 hours exposure
LoVo-Dox = assay: SRB colorimetric assay of cell growth and viability, LoVo-Dox; details: LOVO-DOX, 48 hours exposure
How it was run: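 Absorbance at 490 nm of Tris-solubilized sulforhodamine B gives the read-out after cells are fixed with cold 50% TCA for 60 min at 4° C. Compound exposure lasts 48 hours over 10 to 10^−8 μg/mL. Growth inhibition, total growth inhibition and lethal concentration are calculated from triplicate wells.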

DU-145 = assay: SRB colorimetric assay of cell growth and viability, DU-145; details: DU-145; 48 hours exposure
LNCaP = assay: SRB colorimetric assay of cell growth and viability, LNCaP; details: LN-caP, 48 hours exposure
SK-BR-3 = assay: SRB colorimetric assay of cell growth and viability, SK-BR-3; details: SK-BR-3; 48 hours exposure
IGROV-1 = assay: SRB colorimetric assay of cell growth and viability, IGROV-1; details: IGROV; 48 hours exposure
IGROV-ET = assay: SRB colorimetric assay of cell growth and viability, IGROV-ET; details: IGROV-ET, 48 hours exposure
HeLa = assay: SRB colorimetric assay of cell growth and viability, HeLa; details: HELA, 48 hours exposure
HeLa-APL = assay: SRB colorimetric assay of cell growth and viability, HeLa-APL; details: HELA-APL, 48 hours exposure
K-562 = assay: SRB colorimetric assay of cell growth and viability, K-562; details: K-562, 48 hours exposure
PANC-1 = assay: SRB colorimetric assay of cell growth and viability, PANC-1; details: PANC-1, 48 hours exposure

In the case of `C/C=C1\NC(=O)[C@H](Cc2ccccc2)NC(=O)[C@@H](C(C)C)NC(=O)[C@@H]([C@@H](C)CC)NC(=O)[C@H](NC(=O)[C@H](NC(=O)[C@H](CCCN)NC(=O)[C@H]2CCCN2C(=O)[C@H](NC(=O)[C@@H](NC(=O)[C@H](CC(C)C)NC(=O)[C@H](NC(=O)CCCC(C)C)C(C)C)C(C)C)C(C)C)[C@@H](C)CC)[C@@H](C)OC(=O)[C@H](C(C)C)NC1=O` [Compound 113, [Leu^12]-KF] ({Hexanoyl(5-Me)}-[dV]LV[dV][dP][Orn][d(aIle)][d(aThr)][d(aIle)][dV]F[Dhb]V; ester 8-C), the “TGI A-549” value (A-549) is reported as 2.95E−06 Molar, the GI50 (A-549; read-out: GI50 A-549) is reported as 1.44 µM and the CC50 (A-549; read-out: LC50 A-549) is reported as 6.04 µM. The GI50 (SK-MEL-28) was 1.42 µM, the “TGI MEL-28” value (SK-MEL-28) was 2.77E−06 Molar and the CC50 (SK-MEL-28; read-out: LC50 MEL-28) was 5.37 µM. For the same molecule, the “TGI HT-29” value (HT-29) was 1.76E−06 Molar, the GI50 (HT-29; read-out: GI50 HT-29) was 0.691 µM and the CC50 (HT-29; read-out: LC50 HT-29) was 4.5 µM. For the same molecule, the GI50 (LoVo-Dox) was 0.226 µM, the “TGI LOVO-DOX” value (LoVo-Dox) was 6.11E−07 Molar and the CC50 (LoVo-Dox; read-out: LC50 LOVO-DOX) was 6.71 µM. For the same molecule, the GI50 (DU-145) was 0.906 µM, the LC50 (concentration causing 50% net cell kill) (DU-145) was 5.09 µM and the “TGI DU-145” value (DU-145) was 2.14E−06 Molar. For the same molecule, the GI50 (LNCaP) was 0.906 µM, the “TGI LN-caP” value (LNCaP) was 2.20E−06 Molar and the CC50 (LNCaP; read-out: LC50 LN-caP) was 5.32 µM. For the same molecule, the GI50 (SK-BR-3) was 0.292 µM, the LC50 (SK-BR-3) was 6.71 µM and the “TGI SK-BR-3” value (SK-BR-3) was 6.13E−07 Molar. The GI50 (IGROV-1) was 0.415 µM, the LC50 (concentration causing 50% net cell killing) (IGROV-1) was 6.71 µM and the “TGI IGROV” value (IGROV-1) was 1.70E−06 Molar. For the same molecule, the GI50 (IGROV-ET) was 0.926 µM, the “TGI IGROV-ET” value (IGROV-ET) was 2.48E−06 Molar and the CC50 (IGROV-ET; read-out: LC50 IGROV-ET) was 6.62 µM. The GI50 (HeLa) was 0.191 µM, the “TGI HELA” value (HeLa) was 4.95E−07 Molar and the CC50 (HeLa; read-out: LC50 HELA) was 5.79 µM. The GI50 (HeLa-APL) was 1.19 µM, the “TGI HELA-APL” value (HeLa-APL) was 2.59E−06 Molar and the CC50 (HeLa-APL; read-out: LC50 HELA-APL) was 5.66 µM. The GI50 (K-562) was 1.84 µM, the “TGI K-562” value (K-562) was 3.24E−06 Molar and the CC50 (K-562; read-out: LC50 K-562) was 5.72 µM. The GI50 (PANC-1) was 1.82 µM, the “TGI PANC-1” value (PANC-1) was 4.89E−06 Molar and the CC50 (PANC-1; read-out: LC50 PANC-1) was 6.71 µM.
